We go through 2 molecules from US20180207113A1, “VIVO INTRACELLULAR REPROGRAMMING COMPOSITION AND METHOD OF MAKING AND USING SAME” (priority 2017, published 2018).

Structures are written as SMILES.

The subject of test [1] is C. elegans. As to the kind of experiment: C. elegans lifespan. Type of test: in vivo. From the text:
Urolithins extend lifespan and improve fitness in C. elegans.

Test [2] deals with C. elegans. As to the kind of experiment: Mitochondrial function with age in C. elegans. It counts as in vivo.
For test [3], the system named is C. elegans. As to the kind of experiment: Activity and fitness during aging in C. elegans (mobility, pharyngeal pumping). It counts as in vivo.
The next test deals with mitophagy. As to the kind of experiment: Induction of mitophagy in vitro and in vivo. Conditions: in vitro and in vivo following oral consumption.

Turning to `O=c1oc2c(O)c(O)cc3c(=O)oc4c(O)c(O)cc1c4c23` [EA], the effect on lifespan result with C. elegans [1] (at the same concentration (not given)) was “no effect on lifespan”.

Turning to `O=c1oc2cc(O)ccc2c2ccc(O)cc12` [UA, urolithin A], the lifespan entry in the test on C. elegans [1] is listed as “extended lifespan”. Moreover, in the test with C. elegans [1] (at 50 μM), the “mortality observed at advanced ages” value is recorded as “significantly delayed the mortality”. Further, the “dose-response effect on lifespan” value in the test with C. elegans [1] (concentrations increased from 10 to 50 μM) is on record as “clear dose-response effect”. For the same molecule, the “accumulation of dysfunctional mitochondria with age” value with C. elegans [2] is “prevented the accumulation of dysfunctional mitochondria with age”. Moreover, in the test with C. elegans [2] (during aging), the mitochondrial respiratory capacity result is on record as “maintaining mitochondrial respiratory capacity”. Also, in the test with C. elegans [3], the “normal activity during aging, including mobility and pharyngeal pumping” value is listed as “prolonged normal activity during aging”. Also, the induction of mitophagy entry with mitophagy was “induces mitophagy both in vitro and in vivo”.
